Values belong to the compound of their own block, whether it stands above or below them. The source made the active and inactive calls. No cut-off for these calls is given here.
Assays:
[1] = target: T1, Liver X receptor (Homo sapiens, UniProt Q13133+P55055); assay: Agonist activity at LXR in human HepG2 cells assessed as increase in SREBF1 protein expression level at 1 to 10 uM measured after 72 hrs by Western blot analysis; format: toxicity, cell-based; settings: hepg2, 72 h, dose 1-10 µM
T1 sequence (Q13133 whole entry): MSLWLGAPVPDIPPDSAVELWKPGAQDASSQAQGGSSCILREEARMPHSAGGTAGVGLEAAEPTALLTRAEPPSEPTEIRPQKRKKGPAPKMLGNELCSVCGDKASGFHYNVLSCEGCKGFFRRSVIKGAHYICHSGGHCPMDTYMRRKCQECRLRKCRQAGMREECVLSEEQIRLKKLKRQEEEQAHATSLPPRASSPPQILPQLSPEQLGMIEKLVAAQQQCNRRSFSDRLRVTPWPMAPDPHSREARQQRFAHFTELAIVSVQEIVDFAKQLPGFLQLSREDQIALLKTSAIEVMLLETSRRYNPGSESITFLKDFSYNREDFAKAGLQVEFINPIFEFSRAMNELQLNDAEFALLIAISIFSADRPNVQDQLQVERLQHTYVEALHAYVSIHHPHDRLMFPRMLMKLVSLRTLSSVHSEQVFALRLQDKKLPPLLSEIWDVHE
T1 sequence (P55055 whole entry): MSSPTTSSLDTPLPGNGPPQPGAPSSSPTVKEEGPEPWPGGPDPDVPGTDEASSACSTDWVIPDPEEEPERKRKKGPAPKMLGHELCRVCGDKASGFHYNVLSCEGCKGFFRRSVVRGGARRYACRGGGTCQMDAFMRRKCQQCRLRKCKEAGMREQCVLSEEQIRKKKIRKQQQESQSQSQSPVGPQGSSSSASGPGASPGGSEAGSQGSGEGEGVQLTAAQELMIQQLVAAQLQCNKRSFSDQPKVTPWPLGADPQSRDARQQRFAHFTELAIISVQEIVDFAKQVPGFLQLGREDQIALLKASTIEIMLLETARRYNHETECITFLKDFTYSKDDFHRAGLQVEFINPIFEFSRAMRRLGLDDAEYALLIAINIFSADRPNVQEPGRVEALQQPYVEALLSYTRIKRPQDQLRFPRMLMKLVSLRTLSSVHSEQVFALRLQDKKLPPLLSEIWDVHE

[2] = target: T2, Liver X receptor (Homo sapiens) (UniProt Q13133+P55055); assay: Agonist activity at LXR in human THP-1 cells assessed as increase of ABCA1 protein expression level at 1 to 10 uM by Western blot analysis; format: cell-based; settings: filed as agonist, dose 1-10 µM
[3] = target: T3, Oxysterols receptor LXR-alpha (Homo sapiens) (UniProt Q13133); assay: Agonist activity at human LXRalpha-LBD transfected in HEK293T cells co-expressing Gal4-DBD assessed as increase in luciferase activity measured after 18 hrs by reporter gene assay; format: cell-based; settings: filed as agonist, dose 1-10 µM
T3 sequence (whole entry): T1 sequence (Q13133 whole entry)

[4] = target: T4, Oxysterols receptor LXR-beta (Homo sapiens, UniProt P55055); assay: Agonist activity at full length human LXRbeta transfected in HEK293T cells co-expressing ABCA1 assessed as increase in luciferase activity measured after 18 hrs by luciferase reporter gene assay; format: cell-based
T4 sequence (P55055 whole entry): T1 sequence (P55055 whole entry)

[5] = organism: Homo sapiens; assay: Activation at RXR (unknown origin)
[6] = target: T2, Liver X receptor (Homo sapiens); assay: Agonist activity at LXR in human THP-1 cells assessed as increase of ABCA1 mRNA expression level at 1 to 10 uM by RT-qPCR analysis; format: cell-based; settings: filed as agonist, dose 1-10 µM
[7] = target: T2, Liver X receptor (Homo sapiens); assay: Agonist activity at LXR in cholesterol treated human THP-1 cells assessed as stimulation of plasma mediated cholesterol efflux pre incubated for 24 hrs followed by plasma addition measured after 6 hrs by liquid scintillation counting analysis; format: cell-based; settings: filed as agonist, dose 1-10 µM, time 30.0 hrs
[8] = tested on: HEK-293T; assay: Cytotoxicity against HEK293T cells transfected with LXRalpha assessed as cell viability at >10 uM measured after 18 hrs by luciferase reporter gene assay; format: toxicity, cell-based; settings: human
[9] = target: T5, Nuclear receptor ROR-gamma (Homo sapiens) (UniProt P51449); assay: Activation at RORgamma (unknown origin)
T5 sequence (whole entry): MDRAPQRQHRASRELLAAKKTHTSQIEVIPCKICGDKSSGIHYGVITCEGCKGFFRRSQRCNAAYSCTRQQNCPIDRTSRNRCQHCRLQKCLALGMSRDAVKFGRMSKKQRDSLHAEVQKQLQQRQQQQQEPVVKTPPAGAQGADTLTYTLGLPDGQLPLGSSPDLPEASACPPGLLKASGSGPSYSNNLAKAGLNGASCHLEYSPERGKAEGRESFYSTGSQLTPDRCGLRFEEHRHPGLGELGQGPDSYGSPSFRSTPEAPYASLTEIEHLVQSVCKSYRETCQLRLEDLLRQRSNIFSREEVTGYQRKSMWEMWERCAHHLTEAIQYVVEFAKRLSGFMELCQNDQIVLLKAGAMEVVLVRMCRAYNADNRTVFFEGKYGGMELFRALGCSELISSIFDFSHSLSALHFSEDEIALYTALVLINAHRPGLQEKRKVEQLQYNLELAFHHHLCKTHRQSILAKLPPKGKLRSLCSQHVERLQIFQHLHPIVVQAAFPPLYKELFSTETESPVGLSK

[10] = target: T1, Liver X receptor; assay: Agonist activity at LXR in human HepG2 cells assessed as increase in SREBF1 mRNA expression level at 1 to 10 uM measured after 72 hrs by RT-qPCR analysis; format: toxicity, cell-based; settings: hepg2, 72 h, dose 1-10 µM
[11] = target: T2, Liver X receptor (Homo sapiens); assay: Agonist activity at LXR in human THP-1 cells assessed as increase of ABCG1 mRNA expression level at 1 to 10 uM by RT-qPCR analysis; format: cell-based; settings: filed as agonist, dose 1-10 µM
[12] = target: T2, Liver X receptor (Homo sapiens); assay: Agonist activity at LXR in human HepG2 cells assessed as increase of IDOL mRNA expression level at 10 uM by RT-qPCR analysis; format: cell-based; settings: filed as agonist
[13] = target: T1, Liver X receptor; assay: Agonist activity at LXR in human HepG2 cells assessed as reduction in SREBP1c proteolytic processing measured after 72 hrs by Western blot analysis; format: toxicity, cell-based; settings: hepg2, 72 h, dose 1-10 µM
[14] = target: T1, Liver X receptor; assay: Agonist activity at LXR in human HepG2 cells assessed as reduction in HMGCR mRNA expression measured after 72 hrs by RT-qPCR analysis; format: toxicity, cell-based; settings: hepg2, 72 h, dose 1-10 µM
[15] = tested on: HepG2; assay: Effect on LDLR mRNA expression level in human HepG2 cells at 1 to 10 uM by RT-qPCR analysis; format: functional, cell-based; settings: dose 1-10 µM
[16] = target: T6, Bile acid receptor (Homo sapiens) (UniProt Q96RI1); assay: Activation at FXR (unknown origin)
T6 sequence (whole entry): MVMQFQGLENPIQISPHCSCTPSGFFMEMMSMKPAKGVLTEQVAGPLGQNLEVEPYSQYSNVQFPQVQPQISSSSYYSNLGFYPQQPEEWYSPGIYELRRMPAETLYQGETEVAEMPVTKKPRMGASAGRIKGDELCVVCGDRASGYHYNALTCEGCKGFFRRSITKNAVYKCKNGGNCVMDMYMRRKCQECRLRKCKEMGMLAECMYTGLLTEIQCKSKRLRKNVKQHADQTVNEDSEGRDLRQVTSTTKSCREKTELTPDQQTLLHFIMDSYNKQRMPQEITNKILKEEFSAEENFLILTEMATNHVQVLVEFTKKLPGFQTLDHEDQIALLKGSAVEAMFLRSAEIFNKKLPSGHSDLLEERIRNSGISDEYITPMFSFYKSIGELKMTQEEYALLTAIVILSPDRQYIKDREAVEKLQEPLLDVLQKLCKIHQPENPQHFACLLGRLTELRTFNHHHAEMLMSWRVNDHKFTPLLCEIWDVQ

[17] = target: T2, Liver X receptor (Homo sapiens); assay: Agonist activity at LXR in cholesterol treated human THP-1 cells assessed as stimulation of plasma mediated cholesterol efflux at 5 uM pre incubated for 24 hrs followed by plasma addition measured after 6 hrs by liquid scintillation counting analysis; format: cell-based; settings: filed as agonist
[18] = target: T7, Oxysterols receptor LXR-beta (Homo sapiens) (UniProt P55055); assay: Agonist activity at human LXRbeta-LBD transfected in HEK293T cells co-expressing Gal4-DBD assessed as increase in luciferase activity measured after 18 hrs by reporter gene assay; format: cell-based; settings: filed as agonist, dose 1-10 µM
T7 sequence (whole entry): T1 sequence (P55055 whole entry)

[19] = target: T8, Oxysterols receptor LXR-alpha (Homo sapiens, UniProt Q13133); assay: Agonist activity at full length human LXRalpha transfected in HEK293T cells co-expressing ABCA1 assessed as increase in luciferase activity measured after 18 hrs by reporter gene assay; format: cell-based
T8 sequence (Q13133 whole entry): T1 sequence (Q13133 whole entry)

[20] = target: T1, Liver X receptor; assay: Agonist activity at LXR in human HepG2 cells assessed as reduction in SREBP1c proteolytic processing upto 10 uM measured after 72 hrs by Western blot analysis; format: toxicity, cell-based; settings: hepg2, 72 h
[21] = target: T1, Liver X receptor; assay: Agonist activity at LXR in human HepG2 cells assessed as reduction in HMGCR mRNA expression upto 10 uM measured after 72 hrs by RT-qPCR analysis; format: toxicity, cell-based; settings: hepg2, 72 h
[22] = tested on: HepG2; assay: Effect on LDLR mRNA expression level in human HepG2 cells at 5 uM by RT-qPCR analysis; format: functional, cell-based
[23] = target: T1, Liver X receptor; assay: Agonist activity at LXR in human HepG2 cells assessed as increase in cellular lipid content at 1 uM measured after 72 hrs by Oil Red O staining based assay; format: toxicity, cell-based; settings: hepg2, 72 h
[24] = tested on: HepG2; assay: Effect on LDLR mRNA expression level in human HepG2 cells at 1 uM by RT-qPCR analysis; format: functional, cell-based

Activity [2]: Active | Activity [3]: Dose-Dependent Effect | EC50 [4]: 5.3 µM | Activity [5]: inactive | Activity [6]: Active | Activity [7]: Active | Activity [9]: inactive | Activity [11]: Active | Activity [12]: Active | Activity [16]: inactive | Activity [17]: Active | Activity [18]: Dose-Dependent Effect | EC50 [19]: 1.6 µM
SMILES: CC(C)=C[C@@H]1C[C@@H]([C@@H]2CC[C@]3(C)C4=CC[C@H]5C(C)(C)C(=O)CC[C@]5(C)[C@H]4CC[C@@]23C)[C@H](O)O1
Activity [1]: Not Active | Activity [8]: Toxic | Activity [10]: Not Active | Activity [13]: Dose-Dependent Effect | Activity [14]: Dose-Dependent Effect | Activity [15]: inactive

SMILES: CC(C)CC[C@@H](O)[C@@H](C)[C@H]1CC[C@H]2[C@@H]3CC=C4C[C@@H](O)CC[C@]4(C)[C@H]3CC[C@]12C [22(R)-HYDROXYCHOLESTEROL]
EC50 [4]: 1.5 µM | Activity [20]: Not Active | Activity [21]: Active | Activity [22]: inactive | EC50 [19]: 1.2 µM

SMILES: O=C(O)Cc1cccc(OCCCN(Cc2cccc(C(F)(F)F)c2Cl)CC(c2ccccc2)c2ccccc2)c1
Activity [23]: Toxic | Activity [24]: inactive
